Measured values published in patent US20260000642A1 (Tay Therapeutics Limited, priority 2022, published 2026).
Blank lines part the entries; values can stand above or below the compound they belong to.

Experiments:
[1] = Sprague-Dawley rat pharmacokinetics (IV and PO); format: in vivo; conditions: male Sprague-Dawley rats, cassette mode, Method 1; for bioavailability: rat, plasma, read-out: PO F (%); for bioavailability / PO F (%): PO 5 mg/kg (IV 1 mg/kg); for IV T1/2: IV 1 mg/kg
Text: BET protein inhibitors with a long half-life and good oral bioavailability in in vivo DMPK parameters are promising oral drug candidates. Some of the exemplary compounds of the current disclosure have a long half-life and good oral bioavailability in in vivo DMPK parameters in the Sprague-Dawley rat following intravenous (IV) and oral (PO) dosing. The experimental methods and results (Table 5) are provided hereinafter.
Sprague-Dawley Rat Pharmacokinetics, Method 1
Compounds were formulated in 5% DMSO, 40% PEG-400, 55% Milli-Q water at a concentration of 0.2 mg/mL for IV and at 0.5 mg/mL for PO. Two male Sprague-Dawley rats per arm were dosed with up to 5 compounds in cassette mode, which each compound being dosed at 1 mg/kg IV and 5 mg/kg PO. Blood was sampled at various timepoints and plasma isolated. 50 μL of plasma with 5 μL of blank Sprague-Dawley rat plasma were added to 200 μL of acetonitrile containing IS mixture. The samples were vortexed for 30 s. After centrifugation at 4 degrees Celsius, 3900 rpm for 15 min, the supernatant was diluted 3 times with water. 20 μL of diluted supernatant was injected into the LC/MS/MS system for quantitative analysis and concentration of analyte determined by comparison with matrix matched standard curve. WinNonlin (Phoenix™, version 8.3) or other similar software may be used for pharmacokinetic calculations.

[2] = system: collagen-induced arthritis in Lewis rats; assay: Collagen-induced arthritis (CIA) model in rats: body weight, paw volume, clinical scores, clinical observations; conditions: for Average animal paw volume percent change / Average detailed clinical score, left forelimb / Average detailed clinical score, left hind limb / Average detailed clinical score, right forelimb / Average detailed clinical score, right hind limb / Average detailed clinical score, score / Mean overall clinical score ± SD / animals showing signs of disease (of 8): CIA rats; for Mean animal paw volume (mL) ± SD: group mean, CIA + reference compound (Groups 3, 4); for animals showing signs of disease (of 8): daily P.O. As to Detailed Clinical Scores, left forelimb: key of the grades not given here. As to Detailed Clinical Scores, left hind limb: key of the grades not given here. As to Detailed Clinical Scores, right forelimb: key of the grades not given here. As to Detailed Clinical Scores, right hind limb: key of the grades not given here. As to Detailed Clinical Scores, score: key of the grades not given here.
[3] = system: collagen-induced arthritis in Lewis rats; assay: CIA model: histopathologic analysis of H&E-stained hind limbs; format: in vivo, Lewis rat; conditions: CIA rats
Text: Hind limbs were collected following euthanasia, with the left limb being used for H&E staining.
H&E-stained slides of designated tissues from animals were transferred to an independent pathologist for microscopic evaluation (SPFBio). Samples were assigned the histologic grades based on the severity of change from tissue where CIA was not induced. Histology grades assigned were as follows: grade 1 (minimal change), grade 2 (mild change), grade 3 (moderate change), grade 4 (marked change), and grade 5 (severe change).
Moderate inflammation was also associated with increased edema fluid, fibrin, and cellular debris. Marked mixed cell inflammation was characterized by dense, widespread accumulations of neutrophils and macrophages with lesser number of lymphocytes within one or more joint spaces, synovium and periarticular soft tissues. Marked inflammation was also associated with abundant edema fluid, fibrin, and cellular debris.
Marked granulation tissue (pannus) was associated with inflammation and was characterized by widespread fibrovascular connective tissue that expanded/replaced the periarticular soft tissues of one or more joints, extended into/expanded joint spaces, was contiguous with areas of erosion/ulcer in articular cartilage and/or increased eroded surface of bone, and variably extended along the diaphysis.
Instances of minimal increased eroded surface were not associated with fragments of bone contiguous and/or surrounded by granulation tissue. […] In some areas, increased eroded surfaces were contiguous with areas of erosion/ulcer in the articular cartilages. Instance of marked increased eroded surface were often associated with fragments of bone contiguous with and/or surrounded by granulation tissue.
This observation was typically most pronounced at joint margins (transition zone). The ulceration was often associated with inflammation and granulation tissue extending through the defect to the subchondral bone.
Marked increased periosteal bone (periosteal bone formation) was characterized by extensive areas of increased bone matrix and numerous prominent osteoblasts lining trabecular surfaces along the metaphysis and/or diaphysis of one or more bones. In some areas, increased periosteal bone was contiguous with increased eroded surface and/or erosion/ulcer at articular cartilage.

bioavailability [1]: 13%
Compound: CNC(=O)c1[nH]c(C(=O)NC2CCC2)cc1OC(C)c1ccccc1 (single isomer, unassigned) [Example 102, N^5-cyclobutyl-N^2-methyl-3-(1-phenylethoxy)-1H-pyrrole-2,5-dicarboxamide]

IV T1/2 [1]: 24 min
PO F (%) [1]: 46%
Compound: CCNC(=O)c1cc(OC(C)c2ccccc2F)c(C(=O)NC)[nH]1 (single isomer, unassigned) [Example 20, N^5-ethyl-3-(1-(2-fluorophenyl)ethoxy)-N^2-methyl-1H-pyrrole-2,5-dicarboxamide]

IV T1/2 [1]: 18 min
PO F (%) [1]: 69%
Compound: CCNC(=O)c1cc(OC(C)c2ccc(Cl)cc2F)c(C(=O)NC)[nH]1 (single isomer, unassigned) [Example 41, 3-(1-(4-chloro-2-fluorophenyl)ethoxy)-N^5-ethyl-N^2-methyl-1H-pyrrole-2,5-dicarboxamide]

IV T1/2 [1]: 84 min
PO F (%) [1]: 66%
Compound: CNC(=O)c1[nH]c(C(=O)N[C@H]2CC[C@H](O)CC2)cc1OC(C)c1ccc(Cl)cc1F (single isomer, unassigned) [Example 38, 3-(1-(4-chloro-2-fluorophenyl)ethoxy)-N^5-(trans-4-hydroxycyclohexyl)-N^2-methyl-1H-pyrrole-2,5-dicarboxamide]

Compound: C[C@@H]1C[C@H]2[C@@H]3CCC4=CC(=O)C=C[C@]4(C)[C@@]3(F)[C@@H](O)C[C@]2(C)[C@@]1(O)C(=O)CO [Dex]
Average animal paw volume percent change ([2]; Day 0, L hind paw): 0.00%
Mean animal paw volume (mL) ± SD ([2]; Day 0, L paw): 1.33 mL
Average animal paw volume percent change ([2]; Day 0, R hind paw): 0.00%
Mean animal paw volume (mL) ± SD ([2]; Day 0, R paw): 1.33 mL
Average detailed clinical score, left forelimb ([2]; Day 0): 0.00
Average detailed clinical score, left hind limb ([2]; Day 0): 0.00
Average detailed clinical score, right forelimb ([2]; Day 0): 0.00
Average detailed clinical score, right hind limb ([2]; Day 0): 0.00
Average detailed clinical score, score ([2]; Day 0): 0.00
Mean overall clinical score ± SD ([2]; Day 0): 0 ± 0
Mean animal paw volume (mL) ± SD ([2]; Day 6, L paw): 1.29 mL
Mean animal paw volume (mL) ± SD ([2]; Day 6, R paw): 1.29 mL
Average detailed clinical score, left forelimb ([2]; Day 6): 0.00
Average detailed clinical score, left hind limb ([2]; Day 6): 0.00
Average detailed clinical score, right forelimb ([2]; Day 6): 0.00
Average detailed clinical score, right hind limb ([2]; Day 6): 0.00
Average detailed clinical score, score ([2]; Day 6): 0.00
Mean overall clinical score ± SD ([2]; Day 6): 0 ± 0
Mean animal paw volume (mL) ± SD ([2]; Day 12, L paw): 1.27 mL
Mean animal paw volume (mL) ± SD ([2]; Day 12, R paw): 1.26 mL
Average detailed clinical score, left forelimb ([2]; Day 12): 0.00
Average detailed clinical score, left hind limb ([2]; Day 12): 0.00
Average detailed clinical score, right forelimb ([2]; Day 12): 0.00
Average detailed clinical score, right hind limb ([2]; Day 12): 0.00
Average detailed clinical score, score ([2]; Day 12): 0.00
Mean overall clinical score ± SD ([2]; Day 12): 0 ± 0
Mean animal paw volume (mL) ± SD ([2]; Day 13, L paw): 1.28 mL
Mean animal paw volume (mL) ± SD ([2]; Day 13, R paw): 1.28 mL
Average detailed clinical score, left forelimb ([2]; Day 13): 0.00
Average detailed clinical score, left hind limb ([2]; Day 13): 0.00
Average detailed clinical score, right forelimb ([2]; Day 13): 0.00
Average detailed clinical score, right hind limb ([2]; Day 13): 0.00
Average detailed clinical score, score ([2]; Day 13): 0.00
Mean overall clinical score ± SD ([2]; Day 13): 0 ± 0
Average animal paw volume percent change ([2]; Day 14, L hind paw): −4.60%
Mean animal paw volume (mL) ± SD ([2]; Day 14, L paw): 1.27 mL
Mean animal paw volume (mL) ± SD ([2]; Day 14, R paw): 1.26 mL
Average detailed clinical score, left forelimb ([2]; Day 14): 0.00
Average detailed clinical score, left hind limb ([2]; Day 14): 0.00
Average detailed clinical score, right forelimb ([2]; Day 14): 0.00
Average detailed clinical score, right hind limb ([2]; Day 14): 0.00
Average detailed clinical score, score ([2]; Day 14): 0.00
Mean overall clinical score ± SD ([2]; Day 14): 0 ± 0
Mean animal paw volume (mL) ± SD ([2]; Day 15, L paw): 1.26 mL
Mean animal paw volume (mL) ± SD ([2]; Day 15, R paw): 1.26 mL
Average detailed clinical score, left forelimb ([2]; Day 15): 0.00
Average detailed clinical score, left hind limb ([2]; Day 15): 0.00
Average detailed clinical score, right forelimb ([2]; Day 15): 0.00
Average detailed clinical score, right hind limb ([2]; Day 15): 0.00
Average detailed clinical score, score ([2]; Day 15): 0.00
Mean overall clinical score ± SD ([2]; Day 15): 0 ± 0
Mean animal paw volume (mL) ± SD ([2]; Day 18, L paw): 1.29 mL
Mean animal paw volume (mL) ± SD ([2]; Day 18, R paw): 1.29 mL
Average detailed clinical score, left forelimb ([2]; Day 18): 0.00
Average detailed clinical score, left hind limb ([2]; Day 18): 0.00
Average detailed clinical score, right forelimb ([2]; Day 18): 0.00
Average detailed clinical score, right hind limb ([2]; Day 18): 0.00
Average detailed clinical score, score ([2]; Day 18): 0.00
Mean overall clinical score ± SD ([2]; Day 18): 0 ± 0
Mean animal paw volume (mL) ± SD ([2]; Day 19, L paw): 1.29 mL
Mean animal paw volume (mL) ± SD ([2]; Day 19, R paw): 1.28 mL
Average detailed clinical score, left forelimb ([2]; Day 19): 0.00
Average detailed clinical score, left hind limb ([2]; Day 19): 0.00
Average detailed clinical score, right forelimb ([2]; Day 19): 0.00
Average detailed clinical score, right hind limb ([2]; Day 19): 0.00
Average detailed clinical score, score ([2]; Day 19): 0.00
Mean overall clinical score ± SD ([2]; Day 19): 0 ± 0
Mean animal paw volume (mL) ± SD ([2]; Day 21, L paw): 1.28 mL
Mean animal paw volume (mL) ± SD ([2]; Day 21, R paw): 1.29 mL
Average detailed clinical score, left forelimb ([2]; Day 21): 0.00
Average detailed clinical score, left hind limb ([2]; Day 21): 0.00
Average detailed clinical score, right forelimb ([2]; Day 21): 0.00
Average detailed clinical score, right hind limb ([2]; Day 21): 0.00
Average detailed clinical score, score ([2]; Day 21): 0.00
Mean overall clinical score ± SD ([2]; Day 21): 0 ± 0

IV T1/2 [1]: 66 min
PO F (%) [1]: 30%
Compound: CCNC(=O)c1cc(OC(C)c2ccc(Cl)cc2)c(C(=O)NC)[nH]1 (single isomer, unassigned) [Example 18, 3-(1-(4-chlorophenyl)ethoxy)-N^5-ethyl-N^2-methyl-1H-pyrrole-2,5-dicarboxamide]

bioavailability [1]: 31%
Compound: CNC(=O)c1[nH]c(C(=O)N[C@H]2CC[C@H](O)CC2)cc1OC(C)c1ccccc1 (single isomer, unassigned) [Example 98, N^5-(trans-4-hydroxycyclohexyl)-N^2-methyl-3-(1-phenylethoxy)-1H-pyrrole-2,5-dicarboxamide]

Compound: CNC(=O)c1cc(C(=O)NC2CC2)cn(Cc2ccccc2)c1=O [GSK620]
animals showing signs of disease (of 8) ([2]; day 12): No animals
animals showing signs of disease (of 8) ([2]; day 13): 1/8
animals showing signs of disease (of 8) ([2]; day 14): 5/8
animals showing signs of disease (of 8) ([2]; day 15): 7/8
animals showing signs of disease (of 8) ([2]; day 18): all animals
Detailed Clinical Scores, left forelimb ([2]; Day 0, CIA, per animal ID): 0
Detailed Clinical Scores, left hind limb ([2]; Day 0, CIA, per animal ID): 0
Detailed Clinical Scores, right forelimb ([2]; Day 0, CIA, per animal ID): 0
Detailed Clinical Scores, right hind limb ([2]; Day 0, CIA, per animal ID): 0
Detailed Clinical Scores, score ([2]; Day 0, CIA, per animal ID): 0
Detailed Clinical Scores, left forelimb ([2]; Day 6, CIA, per animal ID): 0
Detailed Clinical Scores, right forelimb ([2]; Day 6, CIA, per animal ID): 0
Detailed Clinical Scores, left forelimb ([2]; Day 12, CIA, per animal ID): 0
Detailed Clinical Scores, right forelimb ([2]; Day 12, CIA, per animal ID): 0
erosion/ulcer in the articular cartilage ([3]; daily P.O. (Group 4)): mild to moderate
granulation tissue (pannus) ([3]; daily P.O. (Group 4)): mild to moderate
increased eroded surface of bone (bone resorption) ([3]; daily P.O. (Group 4)): minimal to moderate
increased periosteal bone (periosteal bone formation) ([3]; daily P.O. (Group 4)): mild to moderate
mixed cell inflammation ([3]; daily P.O. (Group 4)): moderate
pathologic observations after microscopic evaluation (overall) ([3]; daily P.O. for 21 days): at a lower level relative to samples from animals in the CIA-induced group
